The values that follow come from ChEMBL document CHEMBL1131993, “Binding affinities of 3-(3-phenylisoxazol-5-yl)methylidene-1-azabicycles to acetylcholine receptors” (Bioorg Med Chem Lett, 1999).

The target of test [1] is Muscarinic acetylcholine receptor M3 (Homo sapiens) (UniProt P20309). Kind of test: Ability to displace [3H]N-methylscopolamine binding to M3 human recombinant muscarinic receptor in CHO cells at concentration 10 uM. The class given is cell-based.
Test [2] concerns the target T1, Muscarinic acetylcholine receptor M2 (Homo sapiens) (UniProt P08172).
T1 sequence (whole entry): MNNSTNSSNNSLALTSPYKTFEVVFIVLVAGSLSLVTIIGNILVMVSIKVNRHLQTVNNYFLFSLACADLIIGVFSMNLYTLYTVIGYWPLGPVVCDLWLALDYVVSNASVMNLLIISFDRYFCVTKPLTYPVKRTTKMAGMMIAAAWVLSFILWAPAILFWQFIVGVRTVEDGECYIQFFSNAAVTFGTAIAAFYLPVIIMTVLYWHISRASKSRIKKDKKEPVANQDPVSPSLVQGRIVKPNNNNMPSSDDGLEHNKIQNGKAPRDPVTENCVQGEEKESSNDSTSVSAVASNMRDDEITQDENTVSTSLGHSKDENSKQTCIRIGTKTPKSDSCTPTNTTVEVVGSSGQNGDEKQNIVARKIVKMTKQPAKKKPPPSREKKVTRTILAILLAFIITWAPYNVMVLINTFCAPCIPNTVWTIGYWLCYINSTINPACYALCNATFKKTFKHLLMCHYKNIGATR
Kind of test: Ability to displace [3H]N-methylscopolamine binding to M2 human recombinant muscarinic receptor in CHO cells at concentration 1 uM. The class given is cell-based.

The target in test [3] is Neuronal acetylcholine receptor (Rattus norvegicus) (UniProt P04757+P09483+P12389+P12390+P12392+P43144+Q9JLB5+P12391+P43143+P20420+Q05941). Kind of test: Ability to displace [3H]cytisine binding to nicotinic receptor in synaptic membrane fractions from rat cerebral cortices at a concentration of 10 uM. It is filed as cell membranes.
For test [4], the target named is Muscarinic acetylcholine receptor M3 (Homo sapiens) (UniProt P20309). Kind of test: Ability to displace [3H]N-methylscopolamine binding to M3 human recombinant muscarinic receptor in CHO cells at concentration 1 uM. The class given is cell-based.
In test [5] the target is T1, Muscarinic acetylcholine receptor M2 (Homo sapiens). Kind of test: Ability to displace [3H]N-methylscopolamine binding to M2 human recombinant muscarinic receptor in CHO cells at concentration 10 uM. The class given is cell-based.
Test [6] concerns the target T2, Neuronal acetylcholine receptor subunit alpha-7 (Rattus norvegicus, UniProt Q05941). Kind of test: The compound was tested for its binding affinity against nicotinic receptor in synaptic membrane fractions from rat cerebral cortices. The class given is cell membranes.
The target of test [7] is T3, Muscarinic acetylcholine receptor M1 (Homo sapiens) (UniProt P11229).
T3 sequence (whole entry): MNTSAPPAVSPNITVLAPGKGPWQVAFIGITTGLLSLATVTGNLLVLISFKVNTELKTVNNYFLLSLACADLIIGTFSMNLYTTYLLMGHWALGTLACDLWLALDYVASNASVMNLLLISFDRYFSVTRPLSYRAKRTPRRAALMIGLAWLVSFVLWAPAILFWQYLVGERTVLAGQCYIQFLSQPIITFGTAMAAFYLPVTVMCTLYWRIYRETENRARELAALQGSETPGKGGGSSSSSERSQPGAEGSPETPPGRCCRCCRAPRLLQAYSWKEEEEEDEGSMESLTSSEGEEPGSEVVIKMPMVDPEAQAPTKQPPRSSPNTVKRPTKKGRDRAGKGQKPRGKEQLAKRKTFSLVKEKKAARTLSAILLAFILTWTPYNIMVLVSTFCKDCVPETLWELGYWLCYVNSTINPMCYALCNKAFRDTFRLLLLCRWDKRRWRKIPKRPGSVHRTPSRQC
Kind of test: Ability to displace [3H]N-methylscopolamine binding to M1 human recombinant muscarinic receptor in CHO cells at concentration 1 uM. The class given is cell-based.

Test [8] deals with T3, Muscarinic acetylcholine receptor M1 (Homo sapiens). Kind of test: Ability to displace [3H]N-methylscopolamine binding to M1 human recombinant muscarinic receptor in CHO cells at concentration 10 uM. The class given is cell-based.
In test [9] the target is T4, Acetylcholine receptor subunit delta (Torpedo californica) (UniProt P02718).
T4 sequence (whole entry): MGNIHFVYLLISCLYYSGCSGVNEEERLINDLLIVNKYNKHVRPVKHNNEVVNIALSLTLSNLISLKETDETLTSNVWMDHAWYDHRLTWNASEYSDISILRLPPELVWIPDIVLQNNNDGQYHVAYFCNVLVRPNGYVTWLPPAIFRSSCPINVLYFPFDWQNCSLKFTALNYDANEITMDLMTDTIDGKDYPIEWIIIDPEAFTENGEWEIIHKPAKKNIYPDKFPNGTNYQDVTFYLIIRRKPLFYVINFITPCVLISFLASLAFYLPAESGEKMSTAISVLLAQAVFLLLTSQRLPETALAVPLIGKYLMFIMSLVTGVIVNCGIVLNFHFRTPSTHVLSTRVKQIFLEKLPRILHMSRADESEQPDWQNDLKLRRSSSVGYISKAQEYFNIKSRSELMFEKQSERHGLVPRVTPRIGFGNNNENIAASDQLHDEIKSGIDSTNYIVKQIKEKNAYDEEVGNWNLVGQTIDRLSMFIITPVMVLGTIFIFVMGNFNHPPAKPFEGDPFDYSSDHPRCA
Kind of test: Ability to displace [3H]cytisine binding to Nicotinic acetylcholine receptor in synaptic membrane fractions from rat cerebral cortices at a concentration of 10 uM. Conditions: target entry is the homologue from another species. The class given is cell membranes.

In test [10] the target is Neuronal acetylcholine receptor. Kind of test: The compound was tested for its binding affinity against Nicotinic acetylcholine receptor in synaptic membrane fractions from rat cerebral cortices. The class given is cell membranes.
In test [11] the target is T5, Muscarinic acetylcholine receptor M1 (Homo sapiens, UniProt P11229).
T5 sequence (P11229 whole entry): T3 sequence (whole entry)
Kind of test: Compound was tested for its binding affinity against M1 human recombinant muscarinic receptor in CHO cells. It is filed as cell-based.

Test [12] addresses T2, Neuronal acetylcholine receptor subunit alpha-7. Kind of test: Compound was tested for its binding affinity against nicotinic receptor in synaptic membrane fractions from rat cerebral cortices. The class given is cell membranes.

pIC50: −log10 of the molar value. Bounds are passed on as bounds.

As a reminder, the inhibition is the drop in the measured response relative to a control, in per cent. Broadly, the pIC50 is the negative decadic logarithm of the IC50, by convention in mol/L.

Sequence of Muscarinic acetylcholine receptor M3 (Homo sapiens) (P20309 whole entry, looked up): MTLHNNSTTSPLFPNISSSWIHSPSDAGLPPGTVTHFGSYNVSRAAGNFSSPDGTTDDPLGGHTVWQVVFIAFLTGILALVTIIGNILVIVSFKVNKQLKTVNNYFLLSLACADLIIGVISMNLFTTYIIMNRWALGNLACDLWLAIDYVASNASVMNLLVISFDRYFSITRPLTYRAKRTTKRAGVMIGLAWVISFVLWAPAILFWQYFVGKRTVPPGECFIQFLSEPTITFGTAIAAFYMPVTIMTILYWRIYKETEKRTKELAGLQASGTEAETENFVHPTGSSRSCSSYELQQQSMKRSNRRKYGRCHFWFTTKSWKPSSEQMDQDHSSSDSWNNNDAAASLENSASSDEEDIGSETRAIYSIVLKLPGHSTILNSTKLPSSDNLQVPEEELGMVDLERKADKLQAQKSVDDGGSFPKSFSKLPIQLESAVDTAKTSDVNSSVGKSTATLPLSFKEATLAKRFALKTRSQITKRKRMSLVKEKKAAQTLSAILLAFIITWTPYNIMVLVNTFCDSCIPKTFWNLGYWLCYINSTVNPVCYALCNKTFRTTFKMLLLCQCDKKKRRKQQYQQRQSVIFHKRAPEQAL
T2 sequence (Q05941 whole entry): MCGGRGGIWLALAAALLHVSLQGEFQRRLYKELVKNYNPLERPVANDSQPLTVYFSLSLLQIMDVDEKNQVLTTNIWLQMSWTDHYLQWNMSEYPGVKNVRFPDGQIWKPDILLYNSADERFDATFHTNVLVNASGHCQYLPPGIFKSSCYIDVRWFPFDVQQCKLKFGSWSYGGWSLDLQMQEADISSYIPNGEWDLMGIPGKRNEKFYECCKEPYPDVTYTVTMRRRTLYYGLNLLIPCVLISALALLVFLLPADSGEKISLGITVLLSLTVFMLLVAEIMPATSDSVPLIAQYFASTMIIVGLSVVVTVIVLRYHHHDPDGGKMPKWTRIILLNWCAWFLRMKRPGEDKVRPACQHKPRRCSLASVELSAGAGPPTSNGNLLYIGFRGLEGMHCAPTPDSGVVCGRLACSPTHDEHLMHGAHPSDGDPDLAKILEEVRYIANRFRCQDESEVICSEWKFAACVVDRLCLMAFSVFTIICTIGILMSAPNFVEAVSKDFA

Consider `Oc1ccc(-c2cc(/C=C3/CN4CCC3CC4)on2)cc1`, for which the inhibition was found to be 14% in test [1]; 3% in [2]; 93% in [3]; 3% in test [4]; 17% in test [5]; 6% in test [7]. For the same molecule, the inhibition in [8] was found to be 65%. In [6], this molecule had a pIC50 of 6.16.
For the molecule `N#Cc1ccc(-c2cc(/C=C3\CN4CCC3CC4)on2)cc1`, the inhibition is 31% in test [1]; 6% in test [2]; 83% in test [3]; 9% in test [4]; 32% in test [5]; 2% in [7]. Further, the inhibition in test [8] is 22%. In test [6], this molecule showed a negative-log IC50 (pIC50) below 8.00.
On to `Nc1ccc(-c2cc(/C=C3/CN4CCC3CC4)on2)cc1`, for which the inhibition was 19% in test [1]; 5% in [2]; 94% in [9]; 1% in test [4]; 30% in test [5]; 33% in test [7]. In addition, the inhibition in test [8] was found to be 86%. This molecule also had a negative-log IC50 (pIC50) in test [10] of 6.15.
Consider `Cc1cc(/C=C2\CN3CCC2CC3)on1`, for which the values for the pIC50 in test [11] and in test [12] were around 5.00 and 7.92, respectively.
Consider `N#Cc1ccc(-c2cc(/C=C3/CN4CCC3CC4)on2)cc1`, for which the inhibition in [1] stood at 26%; in test [2], 0%; in test [3] it was 92%; in [4] it was 1%; in test [5], 23%; in [7], 11%. For the same molecule, the inhibition in [8] was 61%. Moreover, the negative-log IC50 (pIC50) in test [6] is 6.10.
Turning to `Oc1ccc(-c2cc(/C=C3/CN4CCC3CC4)on2)cc1O`, the inhibition in [1] was 39%; in test [2] it was 12%; in test [9], 95%; in test [4], 5%; in test [5], 43%; in test [7], 13%. In addition, the inhibition in [8] amounted to 59%. Further, the negative-log IC50 (pIC50) in test [10] was 6.31.
